According to article PMC10574767, “Extractives from Artemisia afra with Anti-Bacterial and Anti-Fungal Properties” (Plants, 2023):
In brackets after ≈: the same amount, converted by molar mass.

Columns and labels:
[1] = test system: Enterococcus faecalis ATCC 29212; test: Serial dilution microplate MIC; assay type: cell-based; conditions: Table 2
[2] = test system: Escherichia coli ATCC 25922; test: Serial dilution microplate MIC; assay type: cell-based; conditions: Table 2
[3] = test system: Pseudomonas aeruginosa ATCC 27853; test: Serial dilution microplate MIC; assay type: cell-based; conditions: Table 2
[4] = test system: Candida albicans ATCC 10231; test: Serial dilution microplate MIC (fungi); assay type: cell-based; conditions: Table 2
Experimental: (§1) The MIC value of the plant extracts and isolated compounds against one fungal and five bacterial strains (Salmonella Typhimurium ATCC 39183, Escherichia coli ATCC 25922, Pseudomonas aeruginosa ATCC 27853, Staphylococcus aureus ATCC 29213, Enterococcus faecalis ATCC 29212, and fungi culture, Candida albicans ATCC 10231) was assessed in triplicate using the serial dilution microplate method; acetone and DMSO were used as solvents. Bacterial cultures were grown in Mueller Hinton broth (Sigma Aldrich, St. Louis, MO, USA) overnight and adjusted to McFarland standard 1 (1 × 10^8 CFU/mL). Then, 100 µL of samples were transferred into the first well of a sterile 96-well microtiter plate, which contained 100 µL of water and a 1:1 serial dilution with sterilized distilled water was carried out. In each well, 100 µL of appropriately adjusted fungal or bacterial cultures were added, and the bacteria were subjected to final concentrations of 250–3.9 μg/mL for pure compounds and 2.5–0.02 mg/mL for crude extracts. Amphotericin-B and Gentamicin (Virbac, Carros, France) served as positive controls for fungi and bacteria, respectively. For sterility, water served as control, while acetone served as a negative control. The microplates were then incubated for 24 h at 37 °C. Following incubation, 40 µL of 0.2 mg/mL p-iodonitrotetrazolium violet (INT, Sigma Aldrich) dissolved in water (hot) was added to the wells before being incubated at 37 °C for another 2 h. In the case of fungi, the INT was added before incubation. The MIC was measured visually as the lowest concentration of the compounds/extracts that inhibited proliferation.

[5] = test system: one fungal and five bacterial strains; test: Serial dilution microplate MIC, whole panel; assay type: cell-based; conditions: isolated compounds, all tested strains; highest concentration 250 µg/mL; read-out: MIC against all tested microorganisms
Experimental: as §1

[6] = test system: Aspergillus niger, Aspergillus flavus, Rhizoctonia phaseoli, and Penicillium chrysogenum; set-up: method as in ref 38 = [38]; 38. ur Rahman U. Durrani S. Ubaidullah S.A. ur Rahman S. Anti-pyretic activity of taraxerol acetate KJMS 2016 9 165; conditions: 1 mg/disc; cited from earlier work
[7] = test system: T. rubrum; set-up: method as in PMID 19844829, PMID 35453556; conditions: cited from earlier work
[8] = test system: Candida albicans; set-up: method as in PMID 19844829, PMID 35453556; conditions: cited from earlier work
[9] = test system: A431 squamous carcinoma cell line; set-up: method as in PMID 35453556, PMID 21294076; conditions: cited from earlier work
[10] = test system: HeLa; set-up: method as in PMID 35453556, PMID 21294076; conditions: cited from earlier work

CC1(C)CC[C@]2(C)CC=C3[C@]4(C)CC[C@H]5C(C)(C)[C@@H](O)CC[C@]5(C)[C@H]4CC[C@@]3(C)[C@@H]2C1 [Compound 3β-Taraxerol, 3β-taraxerol]
MIC ([1]; Enterococcus faecalis, ATCC29212, isolated compounds, read-out: Minimum inhibitory concentration (MIC) E. faecalis): > 250 µg/mL | Selectivity index E. faecalis ([1]; in brackets, Vero LC50 vs MIC): < 0.8 | MIC ([2]; Escherichia coli, ATCC25922, isolated compounds, read-out: Minimum inhibitory concentration (MIC) E. coli): 250 µg/mL (≈ 586 µM) | Selectivity index E. coli ([2]; in brackets, Vero LC50 vs MIC): > 0.8 | MIC ([3]; Pseudomonas aeruginosa, ATCC27853, isolated compounds, read-out: Minimum inhibitory concentration (MIC) P. aeruginosa): > 250 µg/mL | Selectivity index P. aeruginosa ([3]; in brackets, Vero LC50 vs MIC): < 0.8 | MIC ([4]; Candida albicans, ATCC10231, isolated compounds, read-out: Minimum inhibitory concentration (MIC) C. albicans): 250 µg/mL (≈ 586 µM) | Selectivity index C. albicans ([4]; in brackets, Vero LC50 vs MIC): > 0.8 | MIC [5]: > 250 µg/mL | Anti-fungal activity against four fungi [6]: weak anti-fungal activities | MIC T. rubrum [7]: 12.5 µg/mL (≈ 29.3 µM) | MIC Candida albicans [8]: 25 µg/mL (≈ 58.6 µM) | Cytotoxicity A431 [9]: 2.65 µg/mL | Cytotoxicity HeLa [10]: inactive
